Patent US6753348B2, “BTK inhibitors and methods for their identification and use” (Parker Hughes Institute, priority 1998, dated 2004)

Tested on: NALM-6-UM1 cells
Test: Fas-mediated apoptosis, DNA fragmentation
Type: cell-based, human
Method: FIGS. 6A-6D: Apoptotic Responses of Human B-lineage Leukemia Cells to Fas Ligation in Relationship to BTK Expression and Function. Anti-BTK and anti-Actin dual-antibody Western blot analysis of whole cell lysates from BTK-positive NALM-6-UM1 (N6-U1) and BTK-deficient RAMOS-1 cells (FIG. 5A). Anti-Fas Western blot analysis of the same cell lysates. [B] Cells were harvested 24 hours after exposure to anti-Fas antibody at 0.1 μg/ml or 1.0 μg/ml concentrations and DNA from Triton-X-100 lysates was analyzed for fragmentation, as described by Uckun, F. M., et al. (1996) Science 273, 1096-1100; and Uckun, F. M., et al. (1995) Science 267, 886-91. […] [C.1] and [C.2] […] N6-U1 cells were harvested 24 hours after exposure to anti-Fas antibody at 0.1 μg/ml or 1.0 μg/ml concentrations and DNA from Triton-X-100 lysates was analyzed for fragmentation, as described by Uckun, F. M., et al. (1996) Science 273, 1096-1100; and Uckun, F. M., et al. (1995) Science 267, 886-91. […]
Apoptosis Assays. […] MC540 binding (as an early marker of apoptosis) and PI permeability (as a marker of advanced stage apoptosis) were simultaneously measured in DT-40 cells 24 hours after exposure to anti-Fas antibody as previously described (Uckun, F. M., et al. (1996) Science 273, 1096-1100). Whole cells were analyzed with a FACStar Plus flow cytometer (Becton Dickinson, San Jose, Calif.). […]

Question: Which results are given for `C/C(O)=C(\C#N)C(=O)Nc1cc(Br)ccc1Br` [LFM-A13, α-Cyano-β-hydroxy-β-methyl-N-(2,5-dibromophenyl)-propenamide]?
Answer: sensitivity to Fas-mediated apoptosis after pretreatment (10 μM x 4 hours, then anti-Fas 0.1 or 1.0 μg/ml, 24 hours): sensitive to Fas-mediated apoptosis; apoptosis by compound alone (10 μM, 4 hour treatment): did not induce apoptosis
